Laboratory results published in patent US20260124324A1, “PHOTOCLICK CHEMISTRY OF SILK FOR TEMPORARY UV TATTOOS” (Trustees of Tufts College, priority 2023, published 2026).

Experiments:
[1] = test system: human dermal fibroblasts (hDFs); test: 2D cell morphology by bright field transmission microscopy; assay type: cell-based; details: positive control, 1% in media, 24 hour incubation
Source text: Images were taken with a Motic AE2000 inverted microscope in bright field transmission through the bottom of transparent 96 well plates. Images from 2D cell culture were processed in GNU Image Manipulation Program V 2.10.12. Contrast was enhanced by changing light and dark levels to maximize the dynamic range of the image. The illumination artifacts were removed by creating a duplicate image on a separate layer and blurring it with a Gaussian blur strength 12.0. This layer was placed below the normal layer, and the two layers were mixed in the “Grain Extract” mixing mode. This process inverts the colors, so the color was inverted again to restore the original orientation.
Cellular morphology is an independent method of assessing cellular health. When healthy, cells like hDFs will adhere to flat plates in 2D culture and multiply rapidly, until they form a confluent layer. The pressure from surrounding cells tends to cause the cells to adopt an elongated and tubular morphology, often aligned with their neighboring cells. When cells are damaged, they will often suffer cytoskeletal damage and will lose their elongated morphology. Dead HDFs will be at the extreme end of this trend, appearing as very small spheres, devoid of cytoskeleton entirely.

[2] = test system: human dermal fibroblasts (hDFs); test: 2D metabolic toxicity assay (MTT); details: positive control, 1% in media, 24 hours
[3] = test system: human dermal fibroblasts (hDFs); test: Fluorescence microscopy of tattooed 3D skin-simulating scaffolds; assay type: cell-based; details: 7 days after tattooing, phalloidin and DAPI staining
Procedure: Cell-laden 3D scaffolds were fixed in a 2% formalin solution in PBS for 2 hours with gentle oscillatory mixing. All subsequent washing steps were performed for 30 minutes with oscillatory mixing with the indicated solution. The formalin solution was then decanted, and the scaffolds were washed 3 times with DI water. The cell membranes were permeabilized by washing the scaffolds with acetone solution (50% v/v acetone in 1×PBS) for 30 minutes. The samples were then washed 3 times with PBS-T (1×PBS, […]), then blocked with 1 mg/mL BSA in PBS-T (1×PBS, 0.1% Triton X-100). Actin was stained with phalloidin-488 (Invitrogen A12379) for 1 hour, then washed 3 times with 1×PBS. Nuclei were stained with DAPI (Invitrogen D3571) for 30 minutes then washed with PBS 3 times. Scaffolds were stored in 1×PBS at 4 C until imaged.
Fixed and stained samples as well as tattooed imaging phantoms were imaged with a Keyence BZ-X710 all-in-one fluorescence microscope. The DAPI filter channel (ex/em 355/450) was used to image both the DAPI stain, fluorescent pyrazoline-laden microparticles, and aqueous SilMA-pyrazoline tattoo inks. The GFP channel (ex/em 488/510) was used to image the phalloidin-stained actin.
Silk fibroin solution (5% w/w) was pipetted into a 24 well plate (1.5 mL per well) and frozen at −20 C. […]

Substance: Triton X-100
- cellular morphology [1]: small hard spheres indicative of dead cells
- metabolic capacity (MTT) [2]: completely destroyed the metabolic capacity of the cells
- cell morphology / localized cytotoxicity in 3D scaffold [3]: only background fluorescence
